The subject of the experiment is Salmonella enteritidis. Put plainly: In vitro testing: SE recovery from inoculated chick starter feed. In kind it is cell-based. The settings on record: feed with increasing amounts of sodium nitrate (1-1000 ppm), 42° C. for 24 hours, vs control (FIG. 1).

The structures appear in SMILES notation.

Description: Briefly, 1.25 grams of chick starter feed was measured into 13×100 mm borosilicate tubes and autoclaved. Nitrate was mixed into the feed before autoclaving at concentrations of 1000 ppm, 100 ppm, 10 ppm, or 1 ppm (Sodium Nitrate, Sigma Chemical Co., St. Louis, Mo.).
The feed also contained 0.1% lactose as a prebiotic. The feed was suspended in 4.5 mL sterile saline and inoculated with 0.5 mL of Salmonella enteriditis (SE) culture containing approximately 10^4 cfu/ml. The tubes were treated with either 0.6 ml of 10^6 cfu/ml of FloraMax-B11® probiotic or saline as a negative control. After administering the treatment, the tubes were agitated and incubated at 42° C. for 24 hours. The tubes then were agitated and the content was serially diluted and plated on Brilliant Green Agar (BGA) containing novobiocin (250 ml) and nalidixic acid (20 μl/ml) to select for SE. Typical SE colonies were counted after 24 hours of incubation.

Consider `O=[N+]([O-])[O-].[Na+]` [sodium nitrate, Sodium Nitrate], for which the “recovery of SE” value was “decreased recovery of SE as compared to the control”.
